Measurements: patent publication US12636300B2, “Methods of treatment and maintenance therapy for bladder cancer using gemcitabine” (Janssen Biotech, Inc., priority 2017, dated 2026)

Experiments:
[1] = system: muscle-invasive urothelial cell carcinoma of the bladder; experiment: Clinical response assessment after TAR-200 induction (cystoscopy, CT/MRI/PET, biopsy); type: in vivo, human
Experimental: (§1) Subjects receive the first TAR-200 transurethrally via the TARIS Inserter on Study Day 0. On Study Day 21 (±3 days), this first TAR-200 will be removed via flexible or rigid cystoscopy, and then the second TAR-200 will be placed. TAR-200 is an intravesicular device that contains 225 mg of gemcitabine. This removal/replacement procedure is repeated for a third and fourth dosing cycle in the induction period on Study Days 42 (±3 days), and 63 (±3 days), respectively. The fourth TAR-200 will be removed on Study Day 84 (±3 days), and the 3-month response assessment will be conducted.
During the maintenance period, a 21-day dosing cycle occurs every quarter (3 months) starting at approximately 6 months. Subjects may continue to undergo quarterly dosing cycles for 3 dosing cycles.
All subjects are assessed for clinical response every 3 months by cystoscopy, pelvic computed tomography (CT)/magnetic resonance imaging (MRI)/positron emission tomography (PET), and biopsy (at 12 weeks only, unless clinically indicated). Subjects are also assessed for symptom control at 3, 6, 9, and 12 weeks, and approximately every month during the maintenance period.
The secondary endpoints are proportion of subjects with clinical complete response (cCR), clinical partial response (cPR), stable disease (SD), and progression on the basis of visual lesions on cystoscopy, pelvic CT/MRI/PET, and biopsy. For purposes of this study, cCR means no evidence of the disease in the bladder or notes. cPR means in the previously N0 subject, a down staging in bladder tumor burden to <pT2 disease and no evidence of nodal disease burden or in the N1-N3 subject: a down staging in bladder tumor burden to <pT2 disease and no evidence of an increase in the size of nodal disease burden or no evidence of down staging in bladder tumor burden and a decrease in the size of nodal disease burden. Stable disease means persistent MIBC without evidence of metastasis. Progression means M1 disease or significant increase in burden of disease in bladder based upon cystoscopy and Ct/MRI/PET. […]

[2] = Safety and tolerability of 4 consecutive 21 day TAR-200 dosing cycles; type: in vivo, human; conditions: four consecutive 3-week delivery periods; patients unfit for radical cystectomy
Experimental: as §1
The primary endpoint is assessment of safety and tolerability of 4 consecutive 21 day TAR-200 dosing cycles.
Twenty three patients were enrolled in the study as described in Example 1. The age range among the enrolled patients is from 50 to 98. The mean age is 82.6, and the median age is 84. The patients were treated and assessed according to the methods described therein. Patients that accomplished a complete response, partial response or stable disease after the induction phase received the maintenance phase treatment.

For `Nc1ccn([C@@H]2O[C@H](CO)[C@@H](O)C2(F)F)c(=O)n1` [gemcitabine], the “duration of durable effect after the induction therapy” value ([1]; after the induction therapy) was “at least 100 days”, the “objective response rate (ORR)” value ([1]; per protocol basis, end of induction period (Day 84)) was 80% and the complete response rate ([1]; per protocol basis, end of induction period (Day 84), ten patients who completed four cycles) was 50%. The “tolerability of four consecutive doses (induction)” value [2] was “well tolerate”.
